Key:
[1] = test system: Mixed population of submersed weed species: Hydrilla verticillata and Egeria densa; assay: Greenhouse test, static exposure of a mixed population of submersed weed species to quinmerac and quinclorac; format: in vivo; conditions: for Shoot Fresh / Shoot Length: static exposure, 12 weeks after treatment; for Shoot Fresh: control 6.8 g, LSD at 0.05 = 3.1; for Shoot Length: control 37.3 cm, LSD at 0.05 = 17.4
Procedure: To begin the experiment, containers were filled and maintained with a volume of 4000 ml of distilled water that was maintained at room temperature (24° C.). To each container, established weed plants (potted in sand mixture) were transferred into the water column. Plants were selected for uniformity and length of shoot growth (approx 15 cm). Plants were allowed to equilibrate in the containers for 24 hrs prior to herbicide treatment. Experimental treatments included an untreated control, quinmerac at 100, 250, and 500 ppb, as well as, quinclorac at 250 ppb of actual acid equivalent of herbicide. Treatments were applied to water columns by the use of a pipette. Amount of herbicide applied was based on the total volume of the containers (4000 ml). After initial herbicide treatment, the water columns were gently stirred to ensure uniform distribution. Treatments were arranged as a completely random design with 3 replications. Each container was considered the experimental unit. Greenhouse conditions were maintained at 24/18° C. (day/night) cycle for the duration of the experiment. Natural day length was supplemented with halogen lighting to provide a 14 hr photoperiod. Water level in the containers was periodically checked and maintained at the 4000 ml level for the duration of the study. After 12 weeks of exposure, weed shoot length and fresh weights were measured to ascertain herbicide effects.

[2] = test system: Hydrilla verticillata; assay: Greenhouse test, static exposure of Hydrilla verticillata to quinclorac in water columns; format: in vivo; conditions: for Hydrilla Shoot Length: static exposure, 11 weeks after treatment, control 30.4 cm, LSD at 0.05 = 11.5
Procedure: To begin the experiment, PVC cylinders were filled and maintained with a volume of 4000 ml of dichlorinated water that was maintained at room temperature (24° C.). To each cylinder, an established hydrilla plant (potted in sand mixture) was transferred into the water column. Hydrilla plants were selected for uniformity and length of shoot growth (approx 15 cm). Plants were allowed to equilibrate in the columns for 24 hrs prior to herbicide treatment. Experimental treatments included an untreated control, and quinclorac at 50, 250 and 500 ppb of actual acid equivalent of herbicide. Treatments were applied to water columns by the use of a pipette. Amount of herbicide applied was based on the total volume of the cylinders (4000 ml). After initial herbicide treatment, the water columns were gently stirred to ensure uniform distribution. Treatments were arranged as a completely random design with 3 replications. Each cylinder was considered the experimental unit. Greenhouse conditions were maintained at 24/18° C. (day/night) cycle for the duration of the experiment. Natural day length was supplemented with halogen lighting to provide a 14 hr photoperiod. Water level in the cylinders was periodically checked and maintained at the 4000 ml level for the duration of the study. After 11 weeks of exposure, hydrilla shoot lengths were measured to ascertain herbicide effects.

Row | SMILES | Visual symptomology ([1]; 12 weeks of exposure, intensity tended to be rate responsive) | Shoot Fresh ([1]; 100 ppb acid equivalent) [grams] | Shoot Length ([1]; 100 ppb acid equivalent) [cm] | Shoot Fresh ([1]; 250 ppb acid equivalent) [grams] | Shoot Length ([1]; 250 ppb acid equivalent) [cm] | Reduction in both shoot length and fresh weight vs. the control ([1]; 250 ppb, 12 weeks of exposure) | Shoot Fresh ([1]; 500 ppb acid equivalent) [grams] | Shoot Length ([1]; 500 ppb acid equivalent) [cm] | Reduction in both shoot length and fresh weight vs. the control ([1]; 500 ppb, 12 weeks of exposure) | Hydrilla Shoot Length ([2]; 50 ppb acid equivalent) [cm] | Hydrilla Shoot Length ([2]; 250 ppb acid equivalent) [cm] | Hydrilla Shoot Length ([2]; 500 ppb acid equivalent) [cm] | Effect on the growth of hydrilla ([2]; after the 11 week exposure period, 50-500 ppb) | Visual symptomology ([2]; after the 11 week exposure period, intensity tended to be rate responsive)
1 | Cc1cnc2c(C(=O)O)c(Cl)ccc2c1 [Quinmerac, 7-chloro-3-methylquinoline-8-carboxylic acid] | reduction in plant vigour and auxinic-like twisting of leaf tissue | 5.1 | 15.0 | 0.5 | 8.9 | Significant reduction | 0.1 | 6.5 | Significant reduction | – | – | – | – | –
2 | O=C(O)c1c(Cl)ccc2cc(Cl)cnc12 [Quinclorac, 3,7-dichloroquinoline-8-carboxylic acid] | – | – | – | 1.5 | 15.7 | Significant reduction | – | – | – | 15.0 | 8.9 | 6.5 | significant effect on the growth of hydrilla | reduction in plant vigour and auxinic-like twisting of leaf tissue

From US9060516B2, “Method for controlling aquatic weeds” (BASF SE, priority 2005, dated 2015)
